± gives the expanded uncertainty stated by the source.
Conditions: 101.33 kPa, Liquid

`COC(C)(C)C` [2-methoxy-2-methylpropane] gave a mass density (298.15 K) of 735.356 ± 0.27 kg/m3 and a mass density (308.15 K) of 724.85 ± 0.28 kg/m3.
`C=C(C)C(=O)O` [2-methyl-2-propenoic acid] showed a mass density (298.15 K) of 1009.13 ± 0.13 kg/m3 and a mass density (308.15 K) of 998.64 ± 0.13 kg/m3.
In the case of `C=CCOC(=O)C(=C)C` [2-propenyl 2-methylpropenoate], the mass density (298.15 K) is reported as 927.997 ± 0.17 kg/m3 and the mass density (308.15 K) is reported as 917.423 ± 0.18 kg/m3.
`C=C(C)C(=O)OCCCC` [butyl 2-methyl-2-propenoate] showed a mass density (298.15 K) of 890.438 ± 0.28 kg/m3 and a mass density (308.15 K) of 880.857 ± 0.28 kg/m3.
Work on `C=COC(C)=O` [vinyl acetate] yielded a mass density (298.15 K) of 925.775 ± 0.16 kg/m3 and a mass density (308.15 K) of 913.134 ± 0.16 kg/m3.

— the NIST ThermoML archive (doi:10.1016/j.jct.2004.11.012)
